Reference: patent US20190048016A1, “SUBSTITUTED BRIDGED UREA ANALOGS AS SIRTUIN MODULATORS” (GlaxoSmithKline Intellectual Property(No.2)Limited, priority 2014, published 2019)

Molecular target: T1, SIRT1 (Homo sapiens, UniProt Q96EB6)
T1 sequence (Q96EB6 1-747): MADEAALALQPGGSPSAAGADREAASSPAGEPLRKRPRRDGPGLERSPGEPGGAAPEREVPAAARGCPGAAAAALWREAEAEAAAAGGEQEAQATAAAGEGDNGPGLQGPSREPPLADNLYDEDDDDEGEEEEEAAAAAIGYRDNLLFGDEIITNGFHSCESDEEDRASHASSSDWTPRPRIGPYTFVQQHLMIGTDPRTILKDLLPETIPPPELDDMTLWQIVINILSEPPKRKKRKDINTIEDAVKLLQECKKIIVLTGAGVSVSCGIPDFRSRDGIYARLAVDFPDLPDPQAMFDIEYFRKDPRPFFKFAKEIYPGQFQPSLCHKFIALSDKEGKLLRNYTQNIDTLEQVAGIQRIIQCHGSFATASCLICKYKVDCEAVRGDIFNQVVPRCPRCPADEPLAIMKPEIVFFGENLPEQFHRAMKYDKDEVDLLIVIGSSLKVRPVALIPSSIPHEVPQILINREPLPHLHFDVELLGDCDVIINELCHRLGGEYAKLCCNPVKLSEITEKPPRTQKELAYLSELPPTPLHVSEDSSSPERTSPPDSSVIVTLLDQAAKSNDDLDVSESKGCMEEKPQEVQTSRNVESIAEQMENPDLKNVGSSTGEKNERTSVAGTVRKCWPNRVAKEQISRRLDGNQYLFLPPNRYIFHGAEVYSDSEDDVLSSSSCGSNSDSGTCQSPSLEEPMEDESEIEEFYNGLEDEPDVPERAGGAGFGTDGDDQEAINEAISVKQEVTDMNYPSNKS
Assay: Trp mass spectrometry assay of SIRT1 activation (deacetylation of Ac-R-H-K-K(Ac)-W-NH2 peptide, OAADPR formation)
Format: biochemical
Details: Trp peptide 0.5 μM, 120 μM βNAD+, 10 nM SIRT1, 25 min, 25° C.; for Emax: 25 min, read-out: TRP MAX RESP (percent maximum fold activation relative to control = 100%)
Source text: Mass spectrometry based assays were used to identify modulators of SIRT1 activity. The TAMRA based assay utilized a peptide having 20 amino acid residues as follows: Ac-EE-K(biotin)-[…](Ac)NleSTEG-K(5TMR)-EE-NH2 (SEQ ID NO: 1), wherein K(Ac) is an acetylated lysine residue and Nle is a norleucine. The peptide was labeled with the fluorophore 5TMR (excitation 540 nm/emission 580 nm) at the C-terminus. The sequence of the peptide substrate was based on p53 with several modifications. In addition, the methionine residue naturally present in the sequence was replaced with the norleucine because the methionine may be susceptible to oxidation during synthesis and purification. The Trp based assay utilized a peptide having an amino acid residues as follows: Ac-R-H-K-K(Ac)-W-NH2 (SEQ ID NO: 2).
The Trp mass spectrometry assay was conducted as follows. 0.5 μM peptide substrate and 120 μM βNAD^+ were incubated with 10 nM SIRT1 for 25 minutes at 25° C. in a reaction buffer (50 mM HEPES pH 7.5, […], 1 mM DTT, 0.05% BSA). The SIRT1 protein was obtained by cloning the SirT1 gene into a T7-promoter containing vector, which was then expressed in BL21(DE3) bacterial cells and purified as described in further detail below. Test compound was added at varying concentrations to this reaction mixture and the resulting reactions were monitored. After the 25 minute incubation with SIRT1, 10 μL of 10% formic acid was added to stop the reaction. The resulting reactions were sealed and frozen for later mass spec analysis. The relative SIRT1 activity was then determined by measuring the amount of O-acetyl-ADP-ribose (OAADPR) formed (or, alternatively, the amount of deacetylated Trp peptide generated) by the NAD-dependent sirtuin deacetylation reaction in the presence of varying concentrations of the test compound versus control reactions lacking the test compound. The degree to which the test agent activated deacetylation by SIRT1 was expressed as EC1.5 (i.e., the concentration of compound required to increase SIRT1 activity by 50% over the control lacking test compound), and Percent Maximum Activation (i.e., the maximum activity relative to control (100%) obtained for the test compound).
A control for inhibition of sirtuin activity was conducted by adding 1 μL of 500 mM nicotinamide as a negative control at the start of the reaction (e.g., permits determination of maximum sirtuin inhibition). A control for activation of sirtuin activity was conducted using 10 nM of sirtuin protein, with 1 μL of DMSO in place of compound, to determine the amount of deacetylation of the substrate at a given time point within the linear range of the assay. This time point was the same as that used for test compounds and, within the linear range, the endpoint represents a change in velocity.
For the above assay, SIRT1 protein was expressed and purified as follows. The SirT1 gene was cloned into a T7-promoter containing vector and transformed into BL21(DE3). The protein was expressed by induction with 1 mM IPTG as an N-terminal His-tag fusion protein at 18° C. overnight and harvested at 30,000×g. Cells were lysed with lysozyme in lysis buffer (50 mM Tris-HCl, 2 mM Tris[2-carboxyethyl] phosphine (TCEP), 10 μM ZnCl2, 200 mM NaCl) and further treated with sonication for 10 min for complete lysis. The protein was purified over a Ni-NTA column (Amersham) and fractions containing pure protein were pooled, concentrated and run over a sizing column (Sephadex S200 26/60 global). The peak containing soluble protein was collected and run on an Ion-exchange column (MonoQ). Gradient elution (200 mM-500 mM NaCl) yielded pure protein. This protein was concentrated and dialyzed against dialysis buffer (20 mM Tris-HCl, 2 mM TCEP) overnight. The protein was aliquoted and frozen at −80° C. until further use.
Sirtuin-modulating compounds of Formula (I) that activated SIRT1 were identified using the assay described above and are shown below in Table 1. […]

| SMILES | Emax [%] | TRP Activity (EC1.5, concentration of compound required to increase SIRT1 activity by 50% over control) | TRP MAX RESP (percent maximum fold activation relative to control = 100%) |
| --- | --- | --- | --- |
| O=C(NC1CC1)c1ccc2c(n1)N(C(=O)Nc1ccccn1)[C@H]1CCCN2C1 [Example 36, (9S)-N2-cyclopropyl-N10-(pyridin-2-yl)-8,9-dihydro-6H-5,9-methanopyrido[2,3-b][1,4]diazocine-2,10(7H)-dicarboxamide] | ≥ 150 | A (EC1.5<1 μM) | – |
| O=C(Nc1nccc(OC[C@@H](O)CO)n1)N1c2nc(-c3cccc(C(F)(F)F)c3)c(Cl)cc2N2CCC[C@H]1C2 [Example 75] | ≥ 150 | A (EC1.5<1 μM) | – |
| O=C(Nc1ccncn1)N1c2nc(-c3ccnc(C(F)(F)F)c3)ccc2N2CCC[C@H]1C2 [Example 9, (9S)-N-(pyrimidin-4-yl)-2-(2-(trifluoromethyl)pyridin-4-yl)-8,9-dihydro-6H-5,9-methanopyrido[2,3-b][1,4]diazocine-10(7H)-carboxamide] | ≥ 150 | A (EC1.5<1 μM) | – |
| O=C(Nc1cccnc1)N1c2nc(N3CCCC(C(F)(F)F)C3)ccc2N2CCC[C@H]1C2 (single isomer, unassigned) [Example 28] | – | A (EC1.5<1 μM) | – |
| O=C(Nc1cncnc1)N1c2nc(-c3ccnc(C(F)(F)F)c3)ccc2N2CCC[C@H]1C2 [Example 10, (9S)-N-(pyrimidin-5-yl)-2-(2-(trifluoromethyl)pyridin-4-yl)-8,9-dihydro-6H-5,9-methanopyrido[2,3-b][1,4]diazocine-10(7H)-carboxamide] | ≥ 150 | A (EC1.5<1 μM) | – |
| O=C(Nc1ccccn1)N1c2nc(N3CCCC(C(F)(F)F)C3)ccc2N2CCC[C@H]1C2 (single isomer, unassigned) [Example 23] | – | B (EC1.5 1-25 μM) | A (Fold activation≥150%) |
| Cc1cc(-c2ccc3c(n2)N(C(=O)Nc2cncnc2)[C@H]2CCCN3C2)ccn1 [Example 16, (9S)-2-(2-methylpyridin-4-yl)-N-(pyrimidin-5-yl)-8,9-dihydro-6H-5,9-methanopyrido[2,3-b][1,4]diazocine-10(7H)-carboxamide] | ≥ 150 | B (EC1.5 1-25 μM) | – |
| O=C(Nc1cnccn1)c1cc2c(nc1N1CCCC(C(F)(F)F)C1)N[C@H]1CCCN2C1 (single isomer, unassigned) [Example 59] | ≤ 150 | – | – |
| O=C(Nc1cncc(OC[C@H](O)CO)c1)N1c2nc(-c3cccc(C(F)(F)F)c3)c(Cl)cc2N2CCC[C@H]1C2 [Example 76, (9S)-3-chloro-N-(5-((R)-2,3-dihydroxypropoxy)pyridin-3-yl)-2-(3-(trifluoromethyl)phenyl)-8,9-dihydro-6H-5,9-methanopyrido[2,3-b][1,4]diazocine-10(7H)-carboxamide] | ≥ 150 | A (EC1.5<1 μM) | – |
| O=C(Nc1cccc(OC[C@H](O)CO)n1)N1c2nc(-c3cccc(C(F)(F)F)c3)c(Cl)cc2N2CCC[C@H]1C2 [Example 65, (9S)-3-chloro-N-(6-((R)-2,3-dihydroxypropoxy)pyridin-2-yl)-2-(3-(trifluoromethyl)phenyl)-8,9-dihydro-6H-5,9-methanopyrido[2,3-b][1,4]diazocine-10(7H)-carboxamide] | ≥ 150 | A (EC1.5<1 μM) | – |
| O=C(Nc1ccc(OC[C@@H](O)CO)cn1)N1c2nc(-c3cccc(C(F)(F)F)c3)c(Cl)cc2N2CCC[C@H]1C2 [Example 74, (9S)-3-chloro-N-(5-((S)-2,3-dihydroxypropoxy)pyridin-2-yl)-2-(3-(trifluoromethyl)phenyl)-8,9-dihydro-6H-5,9-methanopyrido[2,3-b][1,4]diazocine-10(7H)-carboxamide] | ≥ 150 | A (EC1.5<1 μM) | – |
| Cc1cc(-c2ccc3c(n2)N(C(=O)Nc2ccc4nn(C)cc4c2)[C@H]2CCCN3C2)ccn1 [Example 15, (9S)-N-(2-methyl-2H-indazol-5-yl)-2-(2-methylpyridin-4-yl)-8,9-dihydro-6H-5,9-methanopyrido[2,3-b][1,4]diazocine-10(7H)-carboxamide] | ≥ 150 | A (EC1.5<1 μM) | – |
| O=C(Nc1cnccn1)N1c2nc(N3CCC[C@H](C(F)(F)F)C3)ccc2N2CCC[C@H]1C2 (single isomer, unassigned) [Example 27] | ≥ 150 | A (EC1.5<1 μM) | – |
| O=C(Nc1cncnc1)N1c2nc(-c3cncc(C(F)(F)F)c3)ccc2N2CCC[C@H]1C2 [Example 3, (9S)-N-(pyrimidin-5-yl)-2-(5-(trifluoromethyl)pyridin-3-yl)-8,9-dihydro-6H-5,9-methanopyrido[2,3-b][1,4]diazocine-10(7H)-carboxamide] | ≥ 150 | A (EC1.5<1 μM) | – |
| O=C(Nc1ccc(F)cn1)N1c2nc(N3CCCC(C(F)(F)F)C3)ccc2N2CCC[C@H]1C2 (single isomer, unassigned) [Example 24] | ≥ 150 | A (EC1.5<1 μM) | – |
| O=C(NC1CC1)c1nc2c(cc1Cl)N1CCC[C@@H](C1)N2C(=O)Nc1ccccn1 [Example 33, (9S)-3-chloro-N2-cyclopropyl-N10-(pyridin-2-yl)-8,9-dihydro-6H-5,9-methanopyrido[2,3-b][1,4]diazocine-2,10(7H)-dicarboxamide] | ≥ 150 | B (EC1.5 1-25 μM) | – |
